The values that follow come from patent US11331302B2, “Transmucosal delivery of tocotrienol” (INVICTUS BIOTECHNOLOGY PTY LTD., priority 2012, dated 2022).

For series [1] the following is noted: in vivo.
Protocol: FIG. 9: Appearance of blood plasma concentrations using gel and tablet sublingual formulations of a 40 mg dose of tocotrienols. Delta tocotrienol (delta-T3) and gamma tocotrienol (gamma-T3) levels were measured in plasma at time points up to 180 minutes from administration of the gel or tablet (tab) formulation.
A test was carried out in 2 subjects who administered 40 mg tocotrienols in 2 ml of gel sublingually. Blood samples were collected from a forearm venous catheter before administration and at 15, 60, and 180 minutes after administration.
For series [2], the target named is T1, alpha-tocopherol transport protein (a-TTP) (Rattus norvegicus, UniProt P41034).
T1 sequence (P41034 1-278): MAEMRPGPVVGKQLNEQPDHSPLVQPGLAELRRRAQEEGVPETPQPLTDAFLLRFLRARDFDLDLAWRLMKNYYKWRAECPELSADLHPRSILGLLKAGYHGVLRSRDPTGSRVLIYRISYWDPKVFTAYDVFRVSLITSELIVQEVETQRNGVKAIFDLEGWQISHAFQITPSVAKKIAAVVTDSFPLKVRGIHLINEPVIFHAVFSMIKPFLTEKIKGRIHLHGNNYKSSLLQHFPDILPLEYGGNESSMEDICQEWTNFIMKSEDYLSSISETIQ
The following applies: alpha-tocopherol = 100%; cited from earlier work.

For series [3] the following is noted: animal study, estimated; cited from earlier work.
Series [4] in a line: Plasma tocotrienol levels after sublingual tablets. The format is in vivo, human. To be noted: 4×10 mg tablets sublingually, 2 subjects. How it is done: A 220 mg sublingual tablet formulation was prepared containing a dose of 10 mg tocotrienol comprised of the actives: delta-tocotrienol 9 mg, gamma tocotrienol 1 mg; and the following excipients: dextrose, mannitol, marine gelatin, 1-leucine, 1-arginine, pre-gel starch, PEG-200, propylene glycol, talc, silica dioxide, magnesium stearate, carotenoids.
A test was carried out on 2 subjects who dissolved 4×10 mg tablets sublingually.

For series [5] the following is noted: humans; same dose of tocotrienol preparations; cited from earlier work.

`CC(C)=CCC/C(C)=C/CC/C(C)=C/CC[C@]1(C)CCc2cc(O)cc(C)c2O1` [delta tocotrienol]: the “ratio of delta to gamma tocotrienol levels in plasma” value in series [1] is listed as 9:1.
As for `Cc1c(C)c2c(c(C)c1O)CC[C@@](C)(CCC[C@H](C)CCC[C@H](C)CCCC(C)C)O2` [alpha-tocopherol], the “relative affinity towards a-TTP” value in series [2] was 100%.
For the compound `Cc1cc(O)cc2c1O[C@](C)(CCC[C@H](C)CCC[C@H](C)CCCC(C)C)CC2` [delta-tocopherol], the “relative affinity towards a-TTP” value in series [2] is given as 2%.
Turning to tocopherol, the oral bioavailability in series [3] is recorded as 36%.
`CC(C)=CCC/C(C)=C/CC/C(C)=C/CC[C@]1(C)CCc2cc(O)c(C)c(C)c2O1` [gamma tocotrienol]: the “relative affinity towards a-TTP” value in series [2] was 9%. Moreover, the plasma level was determined as 800 nM in series [4] (20 minute point), 400 nM in series [4] (1 h), 190 nM in series [4] (2 h) and 70 nM in series [4] (3 h).
For the compound alpha-tocotrienol, the “relative affinity towards a-TTP” value in series [2] is 12%. Further, in series [5], the “plasma concentration, fold higher than that of gamma-tocotrienol” value was 2 fold and the “plasma concentration, times higher than delta-tocotrienol” value is ~10 times.
